Like-named read-outs stand apart in the source and are kept apart here. Marks after values point to notes of the source that are not given here.
Key:
[1] = cited from earlier work; for increase in the plasma exposure (AUC) of metformin in clinical DDIs: ref Somogyi et al. 1987, Wang et al. 2008, Grün et al. 2013, Müller et al. 2015, Kusuhara et al. 2011
[2] = Perpetrator drug plasma Cmax in clinical interaction studies with metformin; type: in vivo, human; conditions: f u × C max
[3] = target: T1, human organic cation transporter (OCT) 1 (SLC22A1) (Homo sapiens, UniProt O15245); test: cell-based
T1 sequence (O15245 1-554): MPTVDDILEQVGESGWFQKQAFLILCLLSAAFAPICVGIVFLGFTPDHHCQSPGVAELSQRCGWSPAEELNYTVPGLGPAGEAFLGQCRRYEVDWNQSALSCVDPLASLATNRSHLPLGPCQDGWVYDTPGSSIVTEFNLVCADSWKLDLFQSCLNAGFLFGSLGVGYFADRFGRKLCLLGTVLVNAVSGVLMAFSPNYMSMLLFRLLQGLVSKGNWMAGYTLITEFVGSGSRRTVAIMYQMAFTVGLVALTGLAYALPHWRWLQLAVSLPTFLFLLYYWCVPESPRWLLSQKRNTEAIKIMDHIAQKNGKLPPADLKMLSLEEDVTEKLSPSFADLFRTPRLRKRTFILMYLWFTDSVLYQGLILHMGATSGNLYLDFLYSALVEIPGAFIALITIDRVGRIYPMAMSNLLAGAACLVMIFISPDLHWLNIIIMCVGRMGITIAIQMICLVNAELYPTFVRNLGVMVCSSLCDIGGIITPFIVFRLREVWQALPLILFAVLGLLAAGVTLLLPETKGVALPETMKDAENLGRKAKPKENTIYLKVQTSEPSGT

Caco‐2 cell monolayers = test: Metformin apparent permeability across polarised Caco-2 cell monolayers with and without inhibitors; type: in vitro ADME; conditions: therapeutic intestinal concentrations of inhibitor
Procedure: (§1) Caco‐2 cells between passage numbers 50–60 were used for experiments. Cells were seeded in cell culture medium (consisting of DMEM supplemented with 10% (w/v) fetal bovine serum, 2 mmol/L L‐glutamine, 1% (v/v) nonessential amino acids, 50 U/mL penicillin and 50 μg/mL streptomycin) onto Millicell‐96 multiwell insert plates at 1 × 10^5 cells/cm^2 and cultured at 37°C in an atmosphere of 5% CO2 with a relative humidity of 95 %. Media was changed every two or three days and plates were used for transport studies on day 20 postseeding. Cell monolayers were washed twice with prewarmed (37°C) transport buffer (HBSS containing 25 mmol/L HEPES and 4.45 mmol/L glucose, pH 7.4) for basolateral compartments and prewarmed MES‐transport buffer (HBSS containing 10 mmol/L MES and 4.45 mmol/L glucose, pH 6.5) for apical compartments. […] Transport buffer or MES‐transport buffer containing DMSO or test inhibitor was added to the corresponding receiver compartments. Donor and receiver solutions contained a final DMSO concentration of ≤1 % (v/v). […] The amount of lucifer yellow appearing in the receiver compartments was quantified on a fluorescence plate reader and used to calculate permeation across the cell monolayer.

[4] = read-out: [C max] mean steady-state total plasma concentration, cited from earlier work
[5] = target: T2, multidrug and toxin extrusion protein (MATE) 1 (SLC47A1) (Homo sapiens, UniProt Q96FL8); design: method as in Kusuhara et al. 2011; Ito et al. 2012; Müller et al. 2015; conditions: ref Kusuhara et al. 2011; Ito et al. 2012; Müller et al. 2015; cited from earlier work
T2 sequence (Q96FL8 1-570): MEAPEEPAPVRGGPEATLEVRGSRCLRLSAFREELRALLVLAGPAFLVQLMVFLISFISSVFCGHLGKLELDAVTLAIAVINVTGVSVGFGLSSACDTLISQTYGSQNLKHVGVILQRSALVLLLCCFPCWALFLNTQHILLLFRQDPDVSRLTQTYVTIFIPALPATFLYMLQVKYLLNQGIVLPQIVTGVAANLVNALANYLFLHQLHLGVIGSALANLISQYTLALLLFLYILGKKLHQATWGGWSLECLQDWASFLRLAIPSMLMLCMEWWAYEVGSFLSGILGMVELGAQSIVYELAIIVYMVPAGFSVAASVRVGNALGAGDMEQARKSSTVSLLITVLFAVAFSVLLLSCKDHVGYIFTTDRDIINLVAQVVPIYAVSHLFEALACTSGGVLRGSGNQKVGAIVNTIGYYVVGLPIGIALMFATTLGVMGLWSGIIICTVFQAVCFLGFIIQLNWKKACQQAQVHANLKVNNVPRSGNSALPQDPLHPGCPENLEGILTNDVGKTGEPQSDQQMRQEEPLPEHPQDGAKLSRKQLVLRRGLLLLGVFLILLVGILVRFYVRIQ

[6] = cited from earlier work
[7] = target: T2, multidrug and toxin extrusion protein (MATE) 1 (SLC47A1); test: In vitro SLC transporter inhibition: MATE1-mediated [14C]-metformin uptake; type: cell-based
[8] = oral metformin human mass balance, average; ref Pentikäinen et al. 1979; Tucker et al. 1981; Kusuhara et al. 2011; cited from earlier work
[9] = target: T2, multidrug and toxin extrusion protein (MATE) 1 (SLC47A1); conditions: MATE1-mediated metformin uptake, 1.5 min, 37°C; ±SE from fitting
Mate1 = tested on: Mate1; design: method as in Tsuda et al. 2009a; conditions: intravenous administration; ref Tsuda et al. 2009a; cited from earlier work
[10] = Metformin human mass balance and renal clearance; type: in vivo
[11] = Metformin apparent permeability across polarised Caco-2 cell monolayers with and without inhibitors; type: in vitro ADME; conditions: human, Caco-2, pH 6.5
Procedure: as §1

Oct1/2 = tested on: Oct1/2; design: method as in Higgins et al. 2012; conditions: oral administration; ref Higgins et al. 2012; cited from earlier work
MATE2‐K (SLC47A2) = MATE2‐K (SLC47A2) (Homo sapiens, UniProt Q86VL8); conditions: MATE2-K-mediated metformin uptake, 1.5 min, 37°C; ±SE from fitting
Sequence of MATE2‐K (SLC47A2) (Q86VL8 1-566 isoform Q86VL8-3): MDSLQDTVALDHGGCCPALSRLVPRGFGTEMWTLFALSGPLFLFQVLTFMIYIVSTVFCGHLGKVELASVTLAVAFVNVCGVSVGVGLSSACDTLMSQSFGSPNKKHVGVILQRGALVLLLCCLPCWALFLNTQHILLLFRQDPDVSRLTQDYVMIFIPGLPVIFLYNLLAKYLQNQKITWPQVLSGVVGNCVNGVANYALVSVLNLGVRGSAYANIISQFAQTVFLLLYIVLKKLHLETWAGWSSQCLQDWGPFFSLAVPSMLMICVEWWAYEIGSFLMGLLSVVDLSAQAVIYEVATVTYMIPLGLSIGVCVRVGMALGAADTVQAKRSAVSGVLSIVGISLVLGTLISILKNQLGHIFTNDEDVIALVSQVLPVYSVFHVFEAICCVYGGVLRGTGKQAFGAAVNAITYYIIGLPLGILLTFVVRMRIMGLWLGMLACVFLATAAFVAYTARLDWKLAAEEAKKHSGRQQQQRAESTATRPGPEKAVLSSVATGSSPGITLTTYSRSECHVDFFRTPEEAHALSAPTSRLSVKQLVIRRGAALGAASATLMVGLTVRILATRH

[12] = first-listed (or only) clinical study

SMILES: CNC(=C[N+](=O)[O-])NCCSCc1csc(CN(C)C)n1 [nizatidine]
- effect on metformin AUC in clinical interaction study ([1]; ref Morrissey et al. 2016): did not increase metformin AUC

SMILES: CN/C(=N/CCSCc1nc[nH]c1C)NC#N [Cimetidine, cimetidine]
- [C max free] [2, 12]: 7.68 µM
- [C max free] ([2]; second-listed clinical study): 4.08 µM
- increase in the plasma exposure (AUC) of metformin in clinical DDIs [1]: < 2 fold
- IC50 [3]: 275 ± 32.2 µM
- effect on enhancing metformin absorptive permeability across Caco‐2 cells (Caco‐2 cell monolayers): absence of an effect
- Cmax ([4]; cimetidine 400 mg, first value, study with metformin 250 mg, ref Somogyi et al. (1987)): 9.6 µM
- Cmax ([4]; cimetidine 400 mg, second value, study with metformin 500 mg, ref Wang et al. (2008)): 5.1 µM
- mode of inhibition of MATE1 [5]: competitive inhibitors
- f u (fraction unbound) ([6]; ref Somogyi and Gugler (1983)): 0.80 ^a

SMILES: CCc1nc(N)nc(N)c1-c1ccc(Cl)cc1 [Pyrimethamine, pyrimethamine]
- [C max free] [2, 12]: 0.298 µM
- increase in the plasma exposure (AUC) of metformin in clinical DDIs [1]: < 2 fold
- IC50 [3]: 4.46 ± 0.77 µM
- MATE1 K i ([7]; equates to IC50 (probe ≪≪ Km, assuming competitive inhibition)): 0.131 µM
- IC50 (≅K i) values MATE1 ([7]; probe [14C]-metformin 100 μmol/L, 1.5 min, mean ± SD of three experiments): 0.131 ± 0.0401 µM
- effect on enhancing metformin absorptive permeability across Caco‐2 cells (Caco‐2 cell monolayers): absence of an effect
- Cmax ([4]; pyrimethamine 50 mg, study with metformin 250 mg, ref Kusuhara et al. (2011)): 2.29 µM
- mode of inhibition of MATE1 [5]: competitive inhibitors

SMILES: COc1cc(Cc2cnc(N)nc2N)cc(OC)c1OC [Trimethoprim, trimethoprim]
- [C max free] [2, 12]: 7.84 µM
- [C max free] ([2]; second-listed clinical study): 4.26 µM
- increase in the plasma exposure (AUC) of metformin in clinical DDIs [1]: < 2 fold
- effect on enhancing metformin absorptive permeability across Caco‐2 cells (Caco‐2 cell monolayers): absence of an effect
- f u (fraction unbound) ([6]; ref Bactrim and Daraprim drug labels (Drugs@FDA database)): 0.56

SMILES: CN(C)C(=N)N=C(N)N [metformin, Metformin]
- share of the dose eliminated in urine [8]: 52%
- K m [9]: 4.565 ± 0.903 mM
- V max [9]: 141000 ± 12283 pmol/min/mg protein
- increase in metformin AUC in Mate1(−/−) null mice compared with wildtype (Mate1): 4.2 fold
- fraction excreted value, ƒe, renal active transport ([10]; derived from intravenous administration of metformin): 0.66
- fraction excreted value, ƒe, renal active transport ([10]; derived from oral administration of metformin): 0.39
- Papp A→B at 90 min ([11]; read-out: Papp A‐B (apical to basolateral)): ~5 nm/s
- Papp B→A at 90 min ([11]; read-out: Papp B‐A (basolateral to apical)): ~5 nm/s
- increase in metformin AUC in Oct1/2(−/−) mice (Oct1/2): 2.9 fold
- K m (MATE2‐K (SLC47A2)): 2.986 ± 0.817 mM
- V max (MATE2‐K (SLC47A2)): 32147 ± 3401 pmol/min/mg protein
